Measured values published in patent US20090054481A1 (priority 2003, published 2009).
Where a name gives a salt, the structure may show the parent alone.

Legend:
[1] = Dissolution rate of micronized drug substance (background statement); assay type: physicochemical; conditions: agglomerating drug substance
[2] = 25° C., cited from earlier work
[3] = cited from earlier work

For `CC(C)(C)NC(=O)[C@@H]1C[C@@H]2CCCC[C@@H]2CN1C[C@@H](O)[C@H](Cc1ccccc1)NC(=O)[C@H](CC(N)=O)NC(=O)c1ccc2ccccc2n1` [Micronized saquinavir mesylate, saquinavir mesylate], the “dissolution rate (in words)” value [1] was “slow dissolution rate”.
For `CC(C)(C)NC(=O)[C@@H]1C[C@@H]2CCCC[C@@H]2CN1C[C@@H](O)[C@H](Cc1ccccc1)NC(=O)[C@H](CC(N)=O)NC(=O)c1ccc2ccccc2n1` [Saquinavir mesylate], the “solubility in simulated gastric fluid” value ([2]; simulated gastric fluid) is given as 80 µg/mL and the “solubility in simulated intestinal fluid” value ([2]; simulated intestinal fluid) is given as “practically insoluble”.
For `CC(C)(C)NC(=O)[C@@H]1C[C@@H]2CCCC[C@@H]2CN1C[C@@H](O)[C@H](Cc1ccccc1)NC(=O)[C@H](CC(N)=O)NC(=O)c1ccc2ccccc2n1` [saquinavir], the “Absolute bioavailability (average)” value ([3]; 8 healthy volunteers, single 600 mg dose (3×200 mg capsules) following a high fat breakfast, CV 73%) is given as 4%, the “Absolute bioavailability (range)” value ([3]; 8 healthy volunteers, single 600 mg dose (3×200 mg capsules) following a high fat breakfast) is given as 1-9% and the “24-hour AUC and Cmax after a higher calorie meal versus a lower calorie meal” value ([3]; n=6, on average) is given as “two times higher”.
